Laboratory results from patent US11613531B2, “Inhibitors of RHO associated coiled-coil containing protein kinase” (Kadmon Corporation, LLC, priority 2017, dated 2023).
Read-outs that look alike come from different tables or passages of the source.

Columns and labels:
[1] = target: Recombinant ROCK2 (amino acids 1-552) (Homo sapiens (Human), UniProt O75116); test: Z′-Lyte kinase assay, ROCK2; assay type: biochemical; settings: for inhibition at 1 µM: 1 μM compound, read-out: ROCK2 % inh. @ [conc]
Chain of Recombinant ROCK2 (amino acids 1-552) (O75116 1-552): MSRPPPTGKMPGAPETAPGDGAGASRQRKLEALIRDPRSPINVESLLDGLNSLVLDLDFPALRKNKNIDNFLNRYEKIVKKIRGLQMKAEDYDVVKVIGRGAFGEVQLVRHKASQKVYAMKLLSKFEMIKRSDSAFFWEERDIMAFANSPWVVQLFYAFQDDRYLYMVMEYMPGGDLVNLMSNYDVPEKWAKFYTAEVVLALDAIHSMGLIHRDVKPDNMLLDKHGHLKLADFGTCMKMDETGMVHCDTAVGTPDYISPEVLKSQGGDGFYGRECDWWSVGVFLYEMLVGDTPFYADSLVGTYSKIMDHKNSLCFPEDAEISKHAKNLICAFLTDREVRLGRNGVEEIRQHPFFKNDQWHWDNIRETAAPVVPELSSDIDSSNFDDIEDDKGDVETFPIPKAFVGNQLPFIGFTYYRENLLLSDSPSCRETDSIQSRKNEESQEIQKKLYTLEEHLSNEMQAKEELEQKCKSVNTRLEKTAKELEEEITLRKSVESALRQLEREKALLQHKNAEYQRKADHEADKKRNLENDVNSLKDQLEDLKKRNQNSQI
Protocol: Determination of Compound's ROCK Inhibitory Activity In Vitro (Z'Lyte Assay).
Recombinant ROCK1 (amino acids 1-535) and ROCK2 (amino acids 1-552) proteins were purchased from ThermoFisher Scientific. Compound's activities were measured by Z′-lyte kinase kit (ThermoFisher Scientific) and IC50 was calculated
In vitro activities for the compounds were measured with Z′-lyte kinase kit (ThermoFisher Scientific). The percent inhibition rate was calculated by normalizing the kinase activity value obtained with 1 μM compound treatment against DMSO control value and then applied to the formula, [1-(compound/DMSO)]×100%. IC50s were calculated using the nonlinear regression curve fit function of the GraphPad Prism software with kinase activities data measured with 9 points 2-fold serial dilution of compounds treatment. In cell pMLC IC50s were calculated with data obtained from A7R5 cell experiments. A7R5 cells were treated with 9 points 2-fold serial dilution of compounds and ppMlc (T18/S19) levels were determined to calculate cellular IC50 values of the compounds using the nonlinear regression curve fit function of the GraphPad Prism software. NIH3T3 cells stably expressing ACTA2-promoter-driven-luciferase were applied to measure ROCK compounds functional IC50s in cells. Cells were plated in 96 well plates to confluence and treated with 9 points serial dilution of compounds in combination with TGFβ1 for 24 hr. Luciferase activities were measured and compound's IC50s were calculated using the nonlinear regression curve fit function of the GraphPad Prism software.

[2] = test system: ppMlc (T18/S19) levels in A7R5 cells; test: A7R5 in-cell ELISA (pMLC); assay type: cell-based, Rat; settings: Rattus norvegicus, A7R5, A7R5 cells; for inhibition at 1 µM: 1 μM compound; for inhibition at 1 µM / inhibition at 10 µM: read-out: pMLC % inh A7R5 @ [conc]; for inhibition at 10 µM: 10 μM compound; for IC50: ppMlc (T18/S19)
Outline: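 A7R5 rat aortic smooth muscle cells seeded 24 h, then treated 90 min with a 9-point 2-fold compound dilution series. Fixed cells probed for ppMlc (T18/S19) by colorimetric in-cell ELISA; cellular IC50 from nonlinear regression curve fit.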

inhibition at 1 µM [1] [%]	IC50 [2] [nM]	IC50 ([1]; 9 points 2-fold serial dilution) [nM]	SMILES	inhibition at 1 µM [2] [%]	inhibition at 10 µM [2] [%]	IC50 [1] [nM]
73.8	2200	–	CC1CN(c2ncc(Cl)c(Nc3ccc4[nH]ncc4c3)n2)CCCN1 (stereo not shown) [Example 90, N-(5-chloro-2-(3-methyl-1,4-diazepan-1-yl)pyrimidin-4-yl)-1H-indazol-5-amine]	–	54.2	–
47.9	–	–	Cc1cnc(N2CCNC(C)C2)nc1Nc1ccc2[nH]ncc2c1 (stereo not shown) [Example 91, N-(5-methyl-2-(3-methylpiperazin-1-yl)pyrimidin-4-yl)-1H-indazol-5-amine]	–	46.7	–
27.2	–	–	CCC1CCN(c2ncc(C)c(Nc3ccc4[nH]ncc4c3)n2)CCN1 (stereo not shown) [Example 96, N-(2-(5-ethyl-1,4-diazepan-1-yl)-5-methylpyrimidin-4-yl)-1H-indazol-5-amine]	–	14.3	–
54	2340	–	Cc1cnc(N2CCNCC2C)nc1Nc1ccc2[nH]ncc2c1 (stereo not shown) [Example 97, N-(5-methyl-2-(2-methylpiperazin-1-yl)pyrimidin-4-yl)-1H-indazol-5-amine]	–	52.5	–
0	–	–	Cc1cnc(N2CC(C)NC(C)C2)nc1Nc1ccc2[nH]ncc2c1 (stereo not shown) [Example 98, N-(2-(3,5-dimethylpiperazin-1-yl)-5-methylpyrimidin-4-yl)-1H-indazol-5-amine]	–	17.4	–
47.5	–	–	Cc1cnc(N2CCNC(C)CC2)nc1Nc1ccc2[nH]ncc2c1 (stereo not shown) [Example 100, N-(5-methyl-2-(5-methyl-1,4-diazepan-1-yl)pyrimidin-4-yl)-1H-indazol-5-amine]	–	46.4	–
48.5	–	1100	Cc1cnc(N2CCCNC(C)C2)nc1Nc1ccc2[nH]ncc2c1 (stereo not shown) [Example 102, N-(5-methyl-2-(3-methyl-1,4-diazepan-1-yl)pyrimidin-4-yl)-1H-indazol-5-amine]	–	43.5	–
82.9	997	–	Cc1cnc(N2CCCNCC2C)nc1Nc1ccc2[nH]ncc2c1 (stereo not shown) [Example 104, N-(5-methyl-2-(2-methyl-1,4-diazepan-1-yl)pyrimidin-4-yl)-1H-indazol-5-amine]	31.6	–	–
34.1	–	–	CCC1CN(c2ncc(C)c(Nc3ccc4[nH]ncc4c3)n2)CCCN1 (stereo not shown) [Example 106, N-(2-(3-ethyl-1,4-diazepan-1-yl)-5-methylpyrimidin-4-yl)-1H-indazol-5-amine]	12.8	–	–
81.9	1020	–	Cc1cc(Nc2ccc3[nH]ncc3c2)nc(N2CCNC(C)CC2)n1 (stereo not shown) [Example 116, N-(6-methyl-2-(5-methyl-1,4-diazepan-1-yl)pyrimidin-4-yl)-1H-indazol-5-amine]	–	51.6	–
88	734	–	CC1CN(c2ncc(F)c(Nc3ccc4[nH]ncc4c3)n2)CCN1 (stereo not shown) [Example 140, N-(5-fluoro-2-(3-methylpiperazin-1-yl)pyrimidin-4-yl)-1H-indazol-5-amine]	–	63.5	–
71.8	2060	–	CCC1CCN(c2ncc(F)c(Nc3ccc4[nH]ncc4c3)n2)CCN1 (stereo not shown) [Example 146, N-(2-(5-ethyl-1,4-diazepan-1-yl)-5-fluoropyrimidin-4-yl)-1H-indazol-5-amine]	–	50.2	–

Second part, the compound before the results:

SMILES	inhibition at 1 µM [1] [%]	IC50 [2] [nM]	IC50 ([1]; 9 points 2-fold serial dilution) [nM]	inhibition at 1 µM [2] [%]	inhibition at 10 µM [2] [%]	IC50 [1] [nM]
c1ccc2c(c1)C(C1CCCNC1)CN2c1nccc(Nc2ccc3[nH]ncc3c2)n1 (stereo not shown) [Example 89, N-(2-(3-(piperidin-3-yl)indolin-1-yl)pyrimidin-4-yl)-1H-indazol-5-amine]	12.7	–	–	20.1	–	–
Cc1cnc(N2CCNCC2)nc1Nc1ccc2[nH]ncc2c1 [Example 95, N-(5-methyl-2-(piperazin-1-yl)pyrimidin-4-yl)-1H-indazol-5-amine]	61	–	–	–	46.7	–
CCC1CNCCCN1c1ncc(C)c(Nc2ccc3[nH]ncc3c2)n1 (stereo not shown) [Example 105, N-(2-(2-ethyl-1,4-diazepan-1-yl)-5-methylpyrimidin-4-yl)-1H-indazol-5-amine]	53.9	–	–	15.1	–	–
Cc1cnc(N2C3CCC2CNC3)nc1Nc1ccc2[nH]ncc2c1 [Example 107, N-(2-(3,8-diazabicyclo[3.2.1]octan-8-yl)-5-methylpyrimidin-4-yl)-1H-indazol-5-amine]	98.3	–	–	26	–	–
CCC1CCN(c2nc(C)cc(Nc3ccc4[nH]ncc4c3)n2)CCN1 (stereo not shown) [Example 109, N-(2-(5-ethyl-1,4-diazepan-1-yl)-6-methylpyrimidin-4-yl)-1H-indazol-5-amine]	68.4	1880	–	–	52.3	–
Cc1cc(Nc2ccc3[nH]ncc3c2)nc(N2CCCNC(C(C)C)C2)n1 (stereo not shown) [Example 110, N-(2-(3-isopropyl-1,4-diazepan-1-yl)-6-methylpyrimidin-4-yl)-1H-indazol-5-amine]	67.5	1390	–	–	50.9	–
Cc1cc(Nc2ccc3[nH]ncc3c2)nc(N2CCNC(C(C)C)CC2)n1 (stereo not shown) [Example 111, N-(2-(5-isopropyl-1,4-diazepan-1-yl)-6-methylpyrimidin-4-yl)-1H-indazol-5-amine]	31.8	–	–	–	44	–
Cc1cc(Nc2ccc3[nH]ncc3c2)nc(N2CC(C)NC(C)C2)n1 (stereo not shown) [Example 113, N-(2-(3,5-dimethylpiperazin-1-yl)-6-methylpyrimidin-4-yl)-1H-indazol-5-amine]	58.1	2880	–	–	47.5	–
CCC1CN(c2nc(C)cc(Nc3ccc4[nH]ncc4c3)n2)CCN1 (stereo not shown) [Example 114, N-(2-(3-ethylpiperazin-1-yl)-6-methylpyrimidin-4-yl)-1H-indazol-5-amine]	82	–	–	–	48.7	–
Cc1cc(Nc2ccc3[nH]ncc3c2)nc(N2CCNC(C(C)C)C2)n1 (stereo not shown) [Example 115, N-(2-(3-isopropylpiperazin-1-yl)-6-methylpyrimidin-4-yl)-1H-indazol-5-amine]	64.2	–	–	–	48.2	–
Cc1cc(Nc2ccc3[nH]ncc3c2)nc(N2CC3CCC(C2)N3)n1 [Example 119, N-(2-(3,8-diazabicyclo[3.2.1]octan-3-yl)-6-methylpyrimidin-4-yl)-1H-indazol-5-amine]	90.1	–	–	17.7	–	–
Cc1cc(Nc2ccc3[nH]ncc3c2)nc(N2CC3CC(C2)N3)n1 [Example 120, N-(2-(3,6-diazabicyclo[3.1.1]heptan-3-yl)-6-methylpyrimidin-4-yl)-1H-indazol-5-amine]	93.1	–	–	23.4	–	–
Cc1cc(Nc2ccc3[nH]ncc3c2)nc(N2CC3CNCC(C3)C2)n1 [Example 130, N-(2-(3,7-diazabicyclo[3.3.1]nonan-3-yl)-6-methylpyrimidin-4-yl)-1H-indazol-5-amine]	93.4	–	–	27.7	–	–
Cc1cc(Nc2ccc3[nH]ncc3c2)nc(N2CCC3NCCC3C2)n1 (stereo not shown) [Example 131, N-(6-methyl-2-(octahydro-5H-pyrrolo[3,2-c]pyridin-5-yl)pyrimidin-4-yl)-1H-indazol-5-amine]	74.1	–	–	12.7	–	–
Cc1cc(Nc2ccc3[nH]ncc3c2)nc(N2CCC3CNCC3CC2)n1 (stereo not shown) [Example 132, N-(6-methyl-2-(octahydropyrrolo[3,4-d]azepin-6(1H)-yl)pyrimidin-4-yl)-1H-indazol-5-amine]	81.8	–	–	19.6	–	245
Cc1cc(Nc2ccc3[nH]ncc3c2)nc(N2CCN3CCNCC3C2)n1 (stereo not shown) [Example 133, N-(6-methyl-2-(octahydro-2H-pyrazino[1,2-a]pyrazin-2-yl)pyrimidin-4-yl)-1H-indazol-5-amine]	15.2	–	–	3.1	–	–
Cc1cc(Nc2ccc3[nH]ncc3c2)nc(N2CC3CNC3C2)n1 (stereo not shown) [Example 134, N-(2-(3,6-diazabicyclo[3.2.0]heptan-3-yl)-6-methylpyrimidin-4-yl)-1H-indazol-5-amine]	–	–	–	29.9	–	11
Cc1cc(Nc2ccc3[nH]ncc3c2)nc(N2CC(C3CCNCC3)c3ccccc32)n1 (stereo not shown) [Example 137, N-(6-methyl-2-(3-(piperidin-4-yl)indolin-1-yl)pyrimidin-4-yl)-1H-indazol-5-amine]	21.6	–	–	24.4	–	–
Cc1cc(Nc2ccc3[nH]ncc3c2)nc(N2CC3(CCNCC3)c3ccccc32)n1 [Example 138, N-(6-methyl-2-(spiro[indoline-3,4′-piperidin]-1-yl)pyrimidin-4-yl)-1H-indazol-5-amine]	9.1	–	–	15.2	–	–
CCC1CNCCN1c1ncc(F)c(Nc2ccc3[nH]ncc3c2)n1 (stereo not shown) [Example 143, N-(2-(2-ethylpiperazin-1-yl)-5-fluoropyrimidin-4-yl)-1H-indazol-5-amine]	59.3	2150	–	–	49.8	–
